From patent publication EP2676954A1, “Heterocyclyl-substituted-phenyl derivatives as vasodilators” (Laboratorios del Dr. Esteve S.A., priority 2012, dated 2013) come the findings set out here.

This test has as its system Male Wistar rats. The test can be described thus: Penile erection test (penile erection score) in conscious rats. The test is classed as in vivo. To be noted: after local injection (animal studies). The procedure: Male Wistar rats aged from 8 to 10 weeks old (250 - 320 g) were used in these studies. Animals were housed in groups of five, provided with food and water ad libitum and kept in controlled laboratory conditions with the temperature maintained at 22 ± 2 °C and light in 12 h cycles (on at 06:00 h and off at 18:00 h). Experiments were carried out in a soundproof and air-regulated experimental room. The number of rats ranged from 5 to 34 per group in each individual experiment.
Drugs used for treatments were: Compound 1, Compound 2, Compound 3 and Alprostadil.
Male Wistar rats received local injections (intrapenis injections) or topical administrations of test substances and penile erection was quantified (penile erection score) from 15 to 30 min after local drug injection and from 5 to 60 min after topical drug administration. The magnitude of penile erection is determined by penile erection score. The Baseline was determined based on vehicle injection. […]
For evaluating the penile erection after both types of administration, a qualitative score method was used, where 0 = no effect, 1 = slight effect, 2 = some effect without exposure of the penis, and 3 = clear effect with exposure of the penis. The reading times for the local injection were 15 and 30 minutes, and for the topical application were 5, 15, 30, and 60 minutes.
Data are expressed as Mean±SEM. […]

In the case of `Cc1nn(C)c(C)c1-c1cccc(CCN(C)C)c1` [Compound 2, Dimethyl-{2-[3-(1,3,5-trimethyl-1H-pyrazol-4-yl)-phenyl]-ethyl}-amine], the penile erection entry is “cause penile erection in the absence of sexual stimulation”.

For `Cc1nn(C)c(C)c1-c1ccc(O)c(CCN(C)C)c1` [Compound 1, 2-(2-(Dimethylamino)ethyl)-4-(1,3,5-trimethyl-1H-pyrazol-4-yl)phenol], the penile erection entry is reported as “cause penile erection in the absence of sexual stimulation”.
